US12396983B2, “Composition comprising rilmenidine compound as active ingredient for treatment of fragile X syndrome or related developmental disability” (NEUROVENTI, priority 2020, dated 2025)

Tests used:
[1] = test system: animal model lacking Cntnap2; assay: three-chamber test, social preference (novel vs familiar mouse) in Cntnap2-deficient autism animal model; format: in vivo; details: Cntnap2-deficient mice treated with rilmenidine, FIG. 5
Description: To confirm the therapeutic effect of rilmenidine on social deficits, one of the phenotypes of developmental disorders, a three-chamber test was performed using an animal model lacking Cntnap2. FIG. 5 is a result of evaluating whether or not the time spent with a novel mouse is longer than that of a familiar mouse after exploring a stimulus mouse (familiar) for 10 minutes in the experimental animal, and after adding a new stimulus mouse (novel) together for 10 minutes. In this case, the old mouse is called familiar, and the new mouse is called novel. […] Experimental results were expressed as a preference index by measuring the time the test mouse explores each mouse or the sniffing time to each mouse. The higher the preference index, the more time spent with the novel mouse than with the familiar mouse, or the more time spent sniffing with the novel mouse than with the familiar mouse. […] Through this, it was confirmed that rilmenidine treatment can improve sociability (FIG. 5).

[2] = test system: animal model lacking Cntnap2; assay: three-chamber test, sociability index in Cntnap2-deficient autism animal model; format: in vivo, mouse; details: Cntnap2-deficient mice treated with rilmenidine, FIG. 4
Description: To confirm the therapeutic effect of rilmenidine on social deficits, one of the phenotypes of developmental disorders, a three-chamber test was performed using an animal model lacking Cntnap2. The sociability index of FIG. 4 represents a value obtained by dividing stranger (retention time for a mouse) by empty (retention time for an empty space).

[3] = test system: animal model treated with MK-801 in wild-type mice; assay: pre-pulse suppression (startle response) test in MK-801 treated animal model; format: in vivo, mouse; details: wild-type mice treated with MK-801 and then rilmenidine intraperitoneally, FIG. 2
Description: The startle response was confirmed in an animal model treated with MK-801 in wild-type mice. Mice were divided into groups, and 0.9% physiological saline (saline solution), rilmenidine, or a positive control drug (aripiprazole) was intraperitoneally administered to each group. Then, sensorimotor gating was evaluated through a pre-wave suppression test (converted using Equation 1). […] Pre-pulse suppression (%)=100−[(startle response to pre-stimulus+stimulus)/(startle response to stimulus)]*100 [Equation 1] Confirmation of Cognitive Improvement Effect of Rilmenidine

[4] = test system: Fmr1-deficient animal model; assay: three-chamber test, sociability in fragile X syndrome animal model; format: in vivo; details: rilmenidine intraperitoneally (1 mg/kg / 50 ug/kg printed), 30 minutes after administration, FIG. 1
Description: Purchased a 5-week-old Fmr 1 knockout mouse (Jackson Laboratory, USA) weighing about 22 g to 24 g, and acclimatized to an environment with a temperature of 23±2° C. and humidity of 55±10% and a light-dark cycle of 12 hours while allowing them to freely consume water and feed. After breeding (Konkuk University Laboratory Animal Center), they were used for experiments. For all animals, wild-type (WT) with normal FMRP expression and male KO mice lacking FMRP (Fragile X mental retardation protein) expression (which induces Fragile X Syndrome (FXS)) were used. Dosing and experiments were performed according to the age of the week. Dosing was performed at the same time. Behavioral experiments were conducted 30 minutes after administration. It was divided into groups administered with 1 mg/kg each of rilmenidine (Sigma Aldrich) in FMRP expression-deficient knock-out (Knock-Out) mice, wild-type (Wild Type) mice, and 0.25 DMSO in FMRP expression-deficient knock-out mice (6 mice per group). For the drug administration group, rilmenidine was dissolved in 0.25% DMSO and then administered intraperitoneally at a dose of 50 ug/kg. Meanwhile, 0.25% DMSO was intraperitoneally administered to the control group. […] The time the test mouse explored each stimulus mouse was measured and expressed as %.

[5] = test system: animal model treated with MK-801 in wild-type mice; assay: novel object recognition test in MK-801 treated animal model; format: in vivo, mouse; details: wild-type mice treated with MK-801 and then rilmenidine (0.3 mg/kg), test 24 hours after training, FIG. 3
Description: The cognitive improvement effect of rilmenidine was confirmed using an animal model treated with MK-801 in wild-type mice. The experiment was a novel object recognition test, where two identical objects were placed in the same location and trained, and 24 hours later, one identical object (familiar) and the other new object (novel) were put in, and the cognitive ability of the animal was tested by evaluating whether they could distinguish between familiar and new objects.

In the case of `C1COC(NC(C2CC2)C2CC2)=N1` [rilmenidine, N-(dicyclopropylmethyl)-4,5-dihydro-1,3-oxazol-2-amine], the “preference index: sniffing time to novel mouse vs familiar mouse” value [1] was “sniffed more”, the “preference index: time spent with novel mouse vs familiar mouse” value [1] was “spent more time” and the “sociability index: retention time for mouse (stranger) vs empty space” value [2] was “the retention time for the mouse was longer than the retention time for the empty space”. For the same molecule, the pre-pulse suppression [3] was “the reduced pre-pulse suppression was restored”, the “time the test mouse explored novel vs familiar stimulus mouse (sociability)” value [4] was “more time was spent with the novel mouse than with the familiar mouse” and the “ability to distinguish novel object from familiar object (cognitive improvement)” value [5] was “the ability to distinguish novel objects was improved”.
